Laboratory results reported in PubChem BioAssay (NCI).
Several values for one entry are separate records, joined by “and”; a condition that tells them apart may be missing. Equal values may be shown once.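 Exposure lasted 48 hours, with cells grown in 96-well plates and compounds tested at five concentrations. Here, GI50 denotes the concentration required for 50% inhibition of growth. TGI marks complete inhibition of growth.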

Key:
Assay in all cases: NCI tumour cell line growth inhibition, 48 h
[1] = tested on: EKVX NSCLC
[2] = tested on: SN12C renal
[3] = tested on: U251 CNS
[4] = tested on: HT29 colon
[5] = tested on: COLO 205 colon
[6] = tested on: IGROV1 ovarian
[7] = tested on: SW-620 colon
[8] = tested on: PC-3 prostate
[9] = tested on: K-562 leukemia
[10] = tested on: MALME-3M melanoma

CN(C)CCSC1=Nc2ccc(Cl)cc2C(c2ccccc2Cl)=NC1
GI50 [1]: 14.8 µM and 43.4 µM | TGI [1]: 29.9 µM and > 100 µM | GI50 [2]: 13.5 µM and > 100 µM | TGI [2]: 26.5 µM and > 100 µM | GI50 [3]: 13.6 µM and 89.5 µM | TGI [3]: 28.1 µM and > 100 µM | GI50 [4]: 15 µM and 40.6 µM | TGI [4]: 35.4 µM and > 100 µM | GI50 [5]: 14 µM and 74.2 µM | TGI [5]: 27.3 µM and > 100 µM | TGI [6]: > 100 µM | GI50 [7]: 16.6 µM and 33.5 µM | TGI [7]: 34 µM and > 100 µM | GI50 [8]: 15.4 µM and 57.7 µM | TGI [8]: 33.4 µM and > 100 µM | TGI [9]: > 100 µM | GI50 [10]: 13.5 µM and > 100 µM | TGI [10]: 28.3 µM and > 100 µM

CN(C(=O)c1ccc(C(F)(F)F)cc1)c1ccc(Oc2ccc3c(c2)cc(C(=O)N2CCN(Cc4ccc(OC(F)F)cc4)CC2)n3C)nc1
GI50 [1]: < 0.01 µM | TGI [1]: > 100 µM | GI50 [2]: > 100 µM | TGI [2]: > 100 µM | GI50 [3]: 6 µM | TGI [3]: > 100 µM | GI50 [4]: 33.2 µM | TGI [4]: > 100 µM | GI50 [5]: 60 µM | TGI [5]: > 100 µM | GI50 [6]: > 100 µM | TGI [6]: > 100 µM | GI50 [7]: 98.2 µM | TGI [7]: > 100 µM | GI50 [8]: 2.24 µM | TGI [8]: > 100 µM | GI50 [9]: < 0.01 µM | TGI [9]: > 100 µM | GI50 [10]: > 34.9 µM | TGI [10]: > 100 µM

Fc1cc2[nH]ncc2c2c3c(c(-c4cn[nH]c4)nc12)CCCC3
GI50 [1]: 0.795 µM | TGI [1]: 3.98 µM | GI50 [2]: 1.06 µM | TGI [2]: 7.04 µM | GI50 [3]: 0.55 µM | TGI [3]: 13.4 µM | GI50 [4]: 1.24 µM | TGI [4]: > 100 µM | GI50 [5]: 0.658 µM | TGI [5]: 2.62 µM | GI50 [6]: 0.521 µM | TGI [6]: 9.56 µM | GI50 [7]: 0.451 µM | TGI [7]: > 26.6 µM | GI50 [8]: 1.77 µM | TGI [8]: 33.7 µM | GI50 [9]: 1.55 µM | TGI [9]: > 100 µM | GI50 [10]: 0.953 µM | TGI [10]: 3.16 µM

O=C1c2cc3c(cc2-c2c1c1ccc(F)cc1c(=O)n2CCCNCCO)OCO3
GI50 [1]: 0.211 µM | TGI [1]: 1.21 µM | GI50 [2]: 0.108 µM | TGI [2]: 0.861 µM | GI50 [3]: 0.0225 µM | TGI [3]: 0.102 µM | GI50 [4]: 0.0279 µM | TGI [4]: 0.152 µM | GI50 [5]: 0.0423 µM | TGI [5]: 0.81 µM | GI50 [7]: 0.0218 µM | TGI [7]: 1 µM | GI50 [8]: 0.144 µM | TGI [8]: 1.47 µM | GI50 [9]: 0.0373 µM | TGI [9]: 1.36 µM | GI50 [10]: 0.102 µM | TGI [10]: 0.729 µM

OC(c1nc2ccccc2[nH]1)C(O)C(O)C(O)c1nc2ccccc2[nH]1 (stereo unspecified)
TGI [1]: > 100 µM | TGI [2]: > 100 µM | TGI [3]: > 100 µM | TGI [4]: > 100 µM | TGI [5]: > 100 µM | TGI [6]: > 100 µM | TGI [7]: > 100 µM | TGI [8]: > 100 µM | TGI [9]: > 100 µM | TGI [10]: > 100 µM
